Test results published in patent US20220322719A1, “INTESTINAL HEALTH PROMOTING COMPOSITIONS” (NSE Products, Inc., priority 2016, published 2022).

What was measured:
Caco-2 cell monolayers = experiment: TNFα-induced decrease of transepithelial electrical resistance (TEER) in Caco-2 monolayers; type: cell-based; conditions: FIGS. 17-20
[1] = 500 mg isotopically labeled, single dose, male subjects (n=8); cited from earlier work

## Oc1cc(O)c2c(c1)OC(c1ccc(O)c(O)c1)C(O)C2 (stereo not drawn) [catechins, catechin]
Caco-2 cell monolayers
  TNFα induced losses of intestinal barrier integrity (TEER): prevents TNFα induced losses of intestinal barrier integrity

## OC[C@H]1O[C@@H](Oc2cc3c(O)cc(O)cc3[o+]c2-c2ccc(O)c(O)c2)[C@H](O)[C@@H](O)[C@@H]1O [cyanidin-3-glucoside]
[1]
  adverse effects: no adverse effects
  time metabolites were present in the circulation: less than or equal to 48 hours
